# According to ChEMBL document CHEMBL3885861, “Open TG-GATES”:
# Organism: Rattus norvegicus
# Test: Open TG-GATES - Regimen: Daily Repeat
# Format: toxicity, organism-based, Sprague-Dawley
# Design: regimen Daily Repeat, gender Male, age 6 weeks
# Conditions: in vivo, po, 30 mg/kg, route gavage, dose level Low; for APTT / Bas / Eos / Fbg / Hb / Ht / Lym / MCH / MCHC / MCV / Mono / Neu / PT / Plat / RBC / Ret / WBC: tissue Blood; for KIDNEY_L / KIDNEY_R / KIDNEY_TOTAL: tissue Kidney; for LIVER: tissue Liver; for A/G / ALP / ALT / AST / BUN / CRE / Ca / Cl / DBIL / GLC / IP / K / LDH / Na / PL / RALB / TBIL / TC / TG / TP / gamma-GTP: tissue Plasma
structure (smiles),measurement,setting,value
O=C(O)COc1nn(Cc2ccccc2)c2ccccc12 [BENDAZAC],TERMINAL_BW,"72 h, time 3 day",236.5 g
same,APTT,"72 h, time 3 day",17 s
same,Bas,"72 h, time 3 day",0%
same,Eos,"72 h, time 3 day",1.4%
same,Fbg,"72 h, time 3 day",215.2 mg/dL
same,Hb,"72 h, time 3 day",13.4 g/dL
same,Ht,"72 h, time 3 day",40.6%
same,Lym,"72 h, time 3 day",79.2%
same,MCH,"72 h, time 3 day",21.1 pg
same,MCHC,"72 h, time 3 day",33%
same,MCV,"72 h, time 3 day",63.9 fL
same,Mono,"72 h, time 3 day",6.6%
same,Neu,"72 h, time 3 day",12.8%
same,PT,"72 h, time 3 day",11.9 s
same,Plat,"72 h, time 3 day",128 x10_4/uL
same,RBC,"72 h, time 3 day",636 x10_4/ul
same,Ret,"72 h, time 3 day",6.9%
same,WBC,"72 h, time 3 day",98.4 x10_2/uL
same,KIDNEY_L,"72 h, time 3 day",1 g
same,KIDNEY_R,"72 h, time 3 day",1 g
same,KIDNEY_TOTAL,"72 h, time 3 day",2.1 g
same,LIVER,"72 h, time 3 day",11.9 g
same,A/G,"72 h, time 3 day",2.2
same,ALP,"72 h, time 3 day",891 IU/L
same,ALT,"72 h, time 3 day",36.6 IU/L
same,AST,"72 h, time 3 day",66.6 IU/L
same,BUN,"72 h, time 3 day",17.2 mg/dL
same,CRE,"72 h, time 3 day",0.6 mg/dL
same,Ca,"72 h, time 3 day",11 mg/dL
same,Cl,"72 h, time 3 day",103 meq/L
same,DBIL,"72 h, time 3 day",0.018 mg/dL
same,GLC,"72 h, time 3 day",205.2 mg/dL
same,IP,"72 h, time 3 day",7.5 mg/dL
same,K,"72 h, time 3 day",4.5 meq/L
same,LDH,"72 h, time 3 day",128 IU/L
same,Na,"72 h, time 3 day",140.4 meq/L
same,PL,"72 h, time 3 day",149.8 mg/dL
same,RALB,"72 h, time 3 day",3.9 g/dL
same,TBIL,"72 h, time 3 day",0.4 mg/dL
same,TC,"72 h, time 3 day",74.4 mg/dL
same,TG,"72 h, time 3 day",99.6 mg/dL
same,TP,"72 h, time 3 day",5.7 g/dL
same,gamma-GTP,"72 h, time 3 day",0.8 IU/L
same,TERMINAL_BW,"[…], time 7 day",260.1 g
same,TERMINAL_BW,"[…], time 14 day",298.7 g
same,TERMINAL_BW,"[…], time 28 day",393.4 g
same,APTT,"[…], time 7 day",17.3 s
same,Bas,"[…], time 7 day",0%
same,Eos,"[…], time 7 day",1.2%
same,Fbg,"[…], time 7 day",214.6 mg/dL
same,Hb,"[…], time 7 day",14.1 g/dL
same,Ht,"[…], time 7 day",41.5%
same,Lym,"[…], time 7 day",78.4%
same,MCH,"[…], time 7 day",21.2 pg
same,MCHC,"[…], time 7 day",34%
same,MCV,"[…], time 7 day",62.4 fL
same,Mono,"[…], time 7 day",6.8%
same,Neu,"[…], time 7 day",14%
same,PT,"[…], time 7 day",11.7 s
same,Plat,"[…], time 7 day",131.9 x10_4/uL
same,RBC,"[…], time 7 day",665.6 x10_4/ul
same,Ret,"[…], time 7 day",6.1%
same,WBC,"[…], time 7 day",109.2 x10_2/uL
same,APTT,"[…], time 14 day",17.1 s
same,Bas,"[…], time 14 day",0%
same,Eos,"[…], time 14 day",0.6%
same,Fbg,"[…], time 14 day",228.2 mg/dL
same,Hb,"[…], time 14 day",14.9 g/dL
same,Ht,"[…], time 14 day",44%
same,Lym,"[…], time 14 day",85.2%
same,MCH,"[…], time 14 day",20.6 pg
same,MCHC,"[…], time 14 day",33.8%
same,MCV,"[…], time 14 day",61 fL
same,Mono,"[…], time 14 day",3.4%
same,Neu,"[…], time 14 day",10.4%
same,PT,"[…], time 14 day",11 s
same,Plat,"[…], time 14 day",121.3 x10_4/uL
same,RBC,"[…], time 14 day",720.6 x10_4/ul
same,Ret,"[…], time 14 day",2.8%
same,WBC,"[…], time 14 day",112.1 x10_2/uL
same,APTT,"[…], time 28 day",17.2 s
same,Bas,"[…], time 28 day",0%
same,Eos,"[…], time 28 day",1.2%
same,Fbg,"[…], time 28 day",217.6 mg/dL
same,Hb,"[…], time 28 day",15.4 g/dL
same,Ht,"[…], time 28 day",45.1%
same,Lym,"[…], time 28 day",77.4%
same,MCH,"[…], time 28 day",19.3 pg
same,MCHC,"[…], time 28 day",34.1%
same,MCV,"[…], time 28 day",56.7 fL
same,Mono,"[…], time 28 day",5.4%
same,Neu,"[…], time 28 day",15.4%
same,PT,"[…], time 28 day",12 s
same,Plat,"[…], time 28 day",119.3 x10_4/uL
same,RBC,"[…], time 28 day",796.6 x10_4/ul
same,Ret,"[…], time 28 day",2.3%
same,WBC,"[…], time 28 day",105.4 x10_2/uL
same,KIDNEY_L,"[…], time 7 day",1.1 g
same,KIDNEY_R,"[…], time 7 day",1.1 g
same,KIDNEY_TOTAL,"[…], time 7 day",2.2 g
same,KIDNEY_L,"[…], time 14 day",1.2 g
same,KIDNEY_R,"[…], time 14 day",1.2 g
same,KIDNEY_TOTAL,"[…], time 14 day",2.5 g
same,KIDNEY_L,"[…], time 28 day",1.5 g
same,KIDNEY_R,"[…], time 28 day",1.5 g
same,KIDNEY_TOTAL,"[…], time 28 day",2.9 g
same,LIVER,"[…], time 7 day",12.5 g
same,LIVER,"[…], time 14 day",13.5 g
same,LIVER,"[…], time 28 day",16.7 g
same,A/G,"[…], time 7 day",2.1
same,ALP,"[…], time 7 day",930 IU/L
same,ALT,"[…], time 7 day",32.8 IU/L
same,AST,"[…], time 7 day",68.4 IU/L
same,BUN,"[…], time 7 day",18.6 mg/dL
same,CRE,"[…], time 7 day",0.5 mg/dL
same,Ca,"[…], time 7 day",10.9 mg/dL
same,Cl,"[…], time 7 day",104.8 meq/L
same,DBIL,"[…], time 7 day",0 mg/dL
same,GLC,"[…], time 7 day",214.2 mg/dL
same,IP,"[…], time 7 day",7.2 mg/dL
same,K,"[…], time 7 day",4.5 meq/L
same,LDH,"[…], time 7 day",94.4 IU/L
same,Na,"[…], time 7 day",142 meq/L
same,PL,"[…], time 7 day",145.4 mg/dL
same,RALB,"[…], time 7 day",3.9 g/dL
same,TBIL,"[…], time 7 day",0.4 mg/dL
same,TC,"[…], time 7 day",72 mg/dL
same,TG,"[…], time 7 day",114.6 mg/dL
same,TP,"[…], time 7 day",5.7 g/dL
same,gamma-GTP,"[…], time 7 day",0.8 IU/L
same,A/G,"[…], time 14 day",1.7
same,ALP,"[…], time 14 day",683.4 IU/L
same,ALT,"[…], time 14 day",31.6 IU/L
same,AST,"[…], time 14 day",62.6 IU/L
same,BUN,"[…], time 14 day",18.4 mg/dL
same,CRE,"[…], time 14 day",0.5 mg/dL
same,Ca,"[…], time 14 day",10.5 mg/dL
same,Cl,"[…], time 14 day",105.8 meq/L
same,DBIL,"[…], time 14 day",0.03 mg/dL
same,GLC,"[…], time 14 day",185.4 mg/dL
same,IP,"[…], time 14 day",6.9 mg/dL
same,K,"[…], time 14 day",4.6 meq/L
same,LDH,"[…], time 14 day",131.8 IU/L
same,Na,"[…], time 14 day",140.8 meq/L
same,PL,"[…], time 14 day",154.2 mg/dL
same,RALB,"[…], time 14 day",3.8 g/dL
same,TBIL,"[…], time 14 day",0.3 mg/dL
same,TC,"[…], time 14 day",73.2 mg/dL
same,TG,"[…], time 14 day",125.8 mg/dL
same,TP,"[…], time 14 day",6 g/dL
same,gamma-GTP,"[…], time 14 day",1.4 IU/L
same,A/G,"[…], time 28 day",1.5
same,ALP,"[…], time 28 day",780.4 IU/L
same,ALT,"[…], time 28 day",30.4 IU/L
same,AST,"[…], time 28 day",62.4 IU/L
same,BUN,"[…], time 28 day",17.6 mg/dL
same,CRE,"[…], time 28 day",0.5 mg/dL
same,Ca,"[…], time 28 day",10 mg/dL
same,Cl,"[…], time 28 day",104.2 meq/L
same,DBIL,"[…], time 28 day",0.006 mg/dL
same,GLC,"[…], time 28 day",192.2 mg/dL
same,IP,"[…], time 28 day",6 mg/dL
same,K,"[…], time 28 day",4.4 meq/L
same,LDH,"[…], time 28 day",90 IU/L
same,Na,"[…], time 28 day",139.6 meq/L
same,PL,"[…], time 28 day",147.6 mg/dL
same,RALB,"[…], time 28 day",3.7 g/dL
same,TBIL,"[…], time 28 day",0.3 mg/dL
same,TC,"[…], time 28 day",68.2 mg/dL
same,TG,"[…], time 28 day",169 mg/dL
same,TP,"[…], time 28 day",6.3 g/dL
same,gamma-GTP,"[…], time 28 day",1.6 IU/L
